# From patent US20090238852A1, “METHODS FOR CONTROLLING INTRACELLULAR CALCIUM LEVELS ASSOCIATED WITH AN ISCHEMIC EVENT” (University of Utah Research Foundation, priority 2008, published 2009)
# What was measured:
# [1] = tested on: blood coagulation (aPTT, PT, ACT); assay: Phase I single IV bolus study: coagulation tests (aPTT, PT, ACT); assay type: in vivo, human
# Description: A study was performed in 38 volunteer human subjects to assess the safety of escalating bolus doses of 2-O, 3-O desulfated heparin (ODSH). The study was a Phase I, randomized, double-blind, dose-escalation study with a single-day treatment period. Subjects were between the ages of 18 and 45, were not pregnant, and were normal in body weight. They all had normal coagulation function and hemoglobin values at baseline.
# Two subjects also received an injection of fully anticoagulated unfractionated heparin for comparison. ODSH dose groups were run in a series, and safety and tolerance data were evaluated prior to the start of the next dose level (4, 8 12, 16 and 20 mg/kg bolus intravenous doses). Twenty eight (28) subjects randomly received ODSH and 9 subjects were randomized to receive placebo, with an additional two subjects receiving commercially available unfractionated heparin.
# For each bolus dose, ODSH as a 50 mg/mL formulation was diluted with normal saline and a total volume of 50 ml was infused over 15 minutes containing the calculated amount of ODSH the subject was to receive. Placebo consisted of 50 mL of normal saline infused over 15 minutes. For subjects receiving heparin, 5,000 units (approximately 0.5 mg/kg) of heparin was diluted into 50 ml of normal saline and infused over 15 minutes.
# Immediately before infusion and beginning 7 minutes after the start of each infusion, blood was drawn at periodic times for 24 hours to monitor the effect of infusion on the following laboratory studies: activated partial thromboplastin time (aPTT); prothrombin time (PT); activated clotting time (ACT); and ODSH plasma level. Serum chemistries and a complete blood count were checked immediately before infusion and at eight (8) and twenty-four (24) hours later. Using values for aPTT and ODSH levels, pharmacokinetic parameters were calculated by noncompartmental methods using a commercial software program (PhAST 2.3-001). […]
# [2] = tested on: activated clotting time (ACT); assay: Porcine ischemia/reperfusion model: activated clotting time (ACT); assay type: in vivo, pig; conditions: for ACT group difference versus control: 90 and 180 min after
# Text: Arterial access was achieved via bilateral femoral artery cut-downs for the insertion of 8F sheaths. Central venous and carotid access was achieved via a neck incision to expose the external jugular vein and common carotid artery. Animals were then anticoagulated with 50 U/kg of unfractionated heparin to maintain an activated clotting time (ACT) between 250-350 seconds, prior to ischemia. A 7-8 Fr pigtail catheter was placed in the left ventricular cavity to measure pressure and for injection of […] microspheres. Angiography was performed to define coronary anatomy and measure the diameter of the left anterior descending coronary artery (LAD) at the point of intended balloon occlusion. A coronary sinus catheter was placed via the external jugular vein under fluoroscopic guidance for coronary venous sampling. Baseline cardiodynamic and hemodynamic data were measured using a solid state transducer-tipped catheter in the left ventricle (Millar Instruments, Houston, Tex.) to measure left ventricular pressure, and a fluid-filled transducer connected to the side port of the femoral artery sheath to measure peripheral arterial pressure. Approximately 3-4 million neutron-activated microspheres (BioPhysics Assay Laboratory, Inc, Worcester, Ma) (15 μm) were delivered through a pig-tail catheter into the left ventricle over a 30 second period, to quantify regional myocardial blood flow (RMBF). Simultaneously with injection, a reference sample was withdrawn at a rate of 7 cc/min from the femoral artery sheath, for 90 seconds during and after injection of microspheres. A contrast ventriculogram (60° right anterior oblique) was obtained to assess global and regional myocardial function at baseline. […] Balloon occlusion time was 75 minutes with coronary occlusion confirmed by contrast angiography, ST segment changes on electrocardiography, and quantitatively confirmed by microspheres delivered at the end of ischemia, as described above. […] At the end of 180 minutes of reperfusion, animals were euthanized with an IV injection of pentobarbital sodium (100 mg/kg) and the heart was excised to quantify the area at risk, infarct size, regional myocardial blood flow, and myeloperoxidase activity. Hemodynamic data (left ventricular and arterial blood pressure) and derived variables were recorded continuously using 10× and Datanalyst software (EMKA Technologies, Falls Church, Va.).
# Blood anticoagulation was measured by following the ACT, determined using the Hemochron whole blood coagulating system (Hemochron, Edison, N.J.) and measured 10 minutes after delivery of 50 U/kg of unfractionated heparin after the insertion of arterial sheaths. […]
substance,measurement,setting,value
"2-O, 3-O desulfated heparin [ODSH]",PT,[1]; IV bolus 4 to 20 mg/kg,increased in a dose-dependent manner
same,change from baseline in aPTT,"[1]; IV bolus 4 to 20 mg/kg, FIG. 16",rapid increase in aPTT over the infusion period in a dose-dependent fashion
same,mean ACT value at 15 minutes,[1]; ODSH 20 mg/kg IV bolus,207 s
same,change from baseline in ACT,"[1]; bolus doses of 12-20 mg/kg, FIG. 17",Therapeutic increases in the ACT
same,elevation above control in ACT,[2]; 15 mg/kg dose group,approximately 200 seconds
same,ACT group difference versus control,"[2]; ODS 5 mg/kg, end ischemia",no significant differences in ACT
same,ACT group difference versus control,"[2]; ODS 15 mg/kg, end ischemia",no significant differences in ACT
same,ACT compared to the other groups,"[2]; ODS 45 mg/kg, end ischemia, 90 and 180 min after end of ischemia, on 50 U/kg UFH background",significantly higher
